For assay [1], the system named is human premyeloblast leukemia cells (HL-60). Briefly: NBT reduction (differentiation of HL-60 cells into macrophages). Format: cell-based. As to conditions: HL-60, 4 days, control 0.5. The procedure:
Thereafter, the cells were smeared onto a slide glass, subjected to Giemsa staining, and the coloration of the cells was examined under a microscope. The number of cells containing intracellular blue-black formazan deposits was measured for 200 cells, and the results were expressed in terms of the percentage of NBT reduction-positive cells.

For assay [2] the test system is unchanged. Kind of assay: Proliferation-suppression rate of HL-60 cells (Coulter counter, 4 days cultivation). Format: cell-based. As to conditions: 96 h, HL-60, 4 days; for inhibition at 0.1 ng/mL: Concn. 0.1 ng/mL; for inhibition at 1 ng/mL: Concn. 1 ng/mL; for inhibition at 10 ng/mL: Concn. 10 ng/mL. The protocol:
An HL-60 cell fluid adjusted to a concentration of 5 x 10^4 cells/ml was incorporated with each of the agents to be tested and cultivated in a carbon dioxide incubator at 37°C for 4 days. After the cultivation, the number of cells was measured by means of a Coulter counter. The percentage of the number thus measured relative to the number of cells in an untreated group was calculated, from which the proliferation-suppression rate was obtained.

The test system of assay [3] is vitamin D-deficient rats. Kind of assay: Intestinal calcium transport response (method of Martin and DeLuca) in vitamin D-deficient rats. Format: in vivo. Conditions: intrajugular, 24 hours after administration, Mean ± SD (N = 4 ~ 6).
Assay [4] concerns vitamin D-deficient rats. Briefly: Bone calcium mobilization response (serum calcium, OCPC method) in vitamin D-deficient rats. Conditions: intrajugular, 24 hours after administration, Mean ± SD (N = 4 ~ 6). Format: in vivo. The procedure:
Blood was collected after 24 hours, and the concentration of calcium in serum was determined by the OCPC (orthocresolphthalein complexon) method.

Where [5] appears, read: dose 650 pmol/100 g body wt., control 2.5 ± 0.30.
Where [6] appears, read: dose 650 pmol/100 g body wt., control 4.8 ± 0.31.
The mark [7] stands for this setting: dose 50 pmol/100 g body wt., control 2.6 ± 0.27.
Setting [8] is: dose 50 pmol/100 g body wt., control 4.8 ± 0.29.

Take `C=C1/C(=C\C=C2/CCC[C@]3(C)[C@@H]([C@H](C)CC[C@H](O)C(O)(C(F)(F)F)C(F)(F)F)CC[C@@H]23)C[C@@H](O)C[C@@H]1O` [Compound 6a, 24(S)-26,26,26,27,27,27-hexa-fluoro-la,24,25-trihydroxyvitamin D3]: the NBT reduction rate in assay [1] (Concn. 0.1 µg/ml) came to 8.0%. In assay [1] (Concn. 1 µg/ml), the NBT reduction rate is 55.0%. The compound further showed an NBT reduction rate in assay [1] (Concn. 10 µg/ml) of 86.0%. Moreover, in assay [2], the inhibition – broadly, the percentage by which the read-out fell short of the control – at 0.1 ng/mL was found to be 30.7%; testing at 1 ng/mL gave an inhibition of 74.9%; the inhibition at 10 ng/mL was 83.7%.
As to `C=C1/C(=C\C=C2/CCC[C@]3(C)[C@@H]([C@H](C)C[C@H](O)CC(O)(C(F)(F)F)C(F)(F)F)CC[C@@H]23)C[C@@H](O)C[C@@H]1O` [Compound 28b, 23(S)-26,26,26,27,27,27-hexa-fluoro-1α,23,25-trihydroxyvitamin D3], in assay [1] (Concn. 0.1 µg/ml), the NBT reduction rate is reported as 2.0%. The compound also yielded an NBT reduction rate in assay [1] (Concn. 1 µg/ml) of 60.0%. Further, the NBT reduction rate in assay [1] (Concn. 10 µg/ml) is 81.0%. Also, in the assay on vitamin D-deficient rats [3] (setting [5]), the “Intestinal calcium transport (Ca [S/M])” value was determined as 5.7 ± 1.92 Ca [S/M]. In assay [2], this compound yielded an inhibition at 0.1 ng/mL of 22.8%, an inhibition at 1 ng/mL of 67.3% and an inhibition at 10 ng/mL of 86.9%. Moreover, the Serum calcium in the assay with vitamin D-deficient rats [4] (setting [6]) is 5.6 ± 0.60 mg/100 ml.
In the case of `C=C1/C(=C\C=C2/CCC[C@]3(C)[C@@H]([C@H](C)CCCC(C)(C)O)CC[C@@H]23)C[C@@H](O)C[C@@H]1O` [1α,25-(OH)2D3, 1α,25-Dihydroxyvitamin D3, reference compound], the NBT reduction rate in assay [1] (Concn. 0.1 µg/ml) is 1.0%; in assay [1] (Concn. 1 µg/ml), 16.5%; in assay [1] (Concn. 10 µg/ml), 56.5%. The “Intestinal calcium transport (Ca [S/M])” value was determined as 3.4 ± 0.72 Ca [S/M] in the assay with vitamin D-deficient rats [3] (setting [7]) and 3.6 ± 0.52 Ca [S/M] with vitamin D-deficient rats [3] (setting [5]). This compound yielded an inhibition at 0.1 ng/mL in assay [2] of 6.2%. In assay [2], this compound registered an inhibition at 1 ng/mL of 36.1%. 10 ng/mL produced 72.4% inhibition in assay [2]. Moreover, the values for the Serum calcium in the assay with vitamin D-deficient rats [4] (setting [8]) and with vitamin D-deficient rats [4] (setting [6]) were 5.5 ± 0.30 mg/100 ml and 8.5 ± 0.59 mg/100 ml, respectively.
With `C=C1/C(=C\C=C2/CCC[C@]3(C)[C@@H]([C@H](C)CCC(=O)C(O)(C(F)(F)F)C(F)(F)F)CC[C@@H]23)C[C@@H](O)C[C@@H]1O` [Compound 10, la,25-dihydroxy-26,26,26,27,27,27-hexafluoro-24-oxovitamin D3], in assay [1] (Concn. 0.1 µg/ml), the NBT reduction rate is reported as 12.5%. The NBT reduction rate in assay [1] (Concn. 1 µg/ml) amounted to 46.0%. In assay [1] (Concn. 10 µg/ml), this compound yielded an NBT reduction rate of 82.5%. In the assay on vitamin D-deficient rats [3] (setting [7]), the “Intestinal calcium transport (Ca [S/M])” value was 6.5 ± 1.92 Ca [S/M]. In assay [2], this compound came in with an inhibition at 0.1 ng/mL of 45.9%, an inhibition at 1 ng/mL of 78.6% and an inhibition at 10 ng/mL of 89.9%. For the same compound, the Serum calcium in the assay with vitamin D-deficient rats [4] (setting [8]) was found to be 6.5 ± 0.40 mg/100 ml.
In assay [1] (Concn. 0.1 µg/ml), `C=C1/C(=C\C=C2/CCC[C@]3(C)[C@@H]([C@H](C)CC[C@@H](O)C(O)(C(F)(F)F)C(F)(F)F)CC[C@@H]23)C[C@@H](O)C[C@@H]1O` [Compound 6b, 24(R)-26,26,26,27,27,27-hexafluoro-1α,24,25-trihydroxyvitamin-D3] came in with an NBT reduction rate of 32.0%. Further, the NBT reduction rate in assay [1] (Concn. 1 µg/ml) worked out at 79.5%. The compound further came in with an NBT reduction rate in assay [1] (Concn. 10 µg/ml) of 83.5%. Moreover, in the assay on vitamin D-deficient rats [3] (setting [7]), the “Intestinal calcium transport (Ca [S/M])” value stood at 8.9 ± 2.81 Ca [S/M]. In assay [2], this compound displayed an inhibition at 0.1 ng/mL of 50.2%, an inhibition at 1 ng/mL of 84.7% and an inhibition at 10 ng/mL of 90.4%. The Serum calcium with vitamin D-deficient rats [4] (setting [8]) is on record as 6.3 ± 0.55 mg/100 ml.
Consider `C=C1/C(=C\C=C2/CCC[C@]3(C)[C@@H]([C@H](C)C[C@@H](O)CC(O)(C(F)(F)F)C(F)(F)F)CC[C@@H]23)C[C@@H](O)C[C@@H]1O` [Compound 28a, 23(R)-26,26,26,27,27,27-hexa-fluoro-1α,23,25-trihydroxyvitamin D3], for which the NBT reduction rate in assay [1] (Concn. 0.1 µg/ml) is listed as 6.5%. In assay [1] (Concn. 1 µg/ml), the NBT reduction rate came to 60.5%. Besides, the NBT reduction rate in assay [1] (Concn. 10 µg/ml) is 80.0%. The “Intestinal calcium transport (Ca [S/M])” value in the assay with vitamin D-deficient rats [3] (setting [5]) was 6.3 ± 1.88 Ca [S/M]. Also, in assay [2], the inhibition at 0.1 ng/mL is 19.8%, the inhibition at 1 ng/mL stood at 76.4% and 10 ng/mL produced 92.2% inhibition. The Serum calcium in the assay with vitamin D-deficient rats [4] (setting [6]) was 7.2 ± 0.67 mg/100 ml.

These data come from patent EP0250755A2, “Fluorine derivatives of vitamin D3 and process for producing the same” (SUMITOMO PHARMACEUTICALS COMPANY, LIMITED, priority 1986, dated 1988).
